Read-outs that look alike come from different tables or passages of the source.

One series concerns the target T1, ABCG2/BCRP (Homo sapiens, UniProt Q9UNQ0).
T1 sequence (Q9UNQ0 1-655): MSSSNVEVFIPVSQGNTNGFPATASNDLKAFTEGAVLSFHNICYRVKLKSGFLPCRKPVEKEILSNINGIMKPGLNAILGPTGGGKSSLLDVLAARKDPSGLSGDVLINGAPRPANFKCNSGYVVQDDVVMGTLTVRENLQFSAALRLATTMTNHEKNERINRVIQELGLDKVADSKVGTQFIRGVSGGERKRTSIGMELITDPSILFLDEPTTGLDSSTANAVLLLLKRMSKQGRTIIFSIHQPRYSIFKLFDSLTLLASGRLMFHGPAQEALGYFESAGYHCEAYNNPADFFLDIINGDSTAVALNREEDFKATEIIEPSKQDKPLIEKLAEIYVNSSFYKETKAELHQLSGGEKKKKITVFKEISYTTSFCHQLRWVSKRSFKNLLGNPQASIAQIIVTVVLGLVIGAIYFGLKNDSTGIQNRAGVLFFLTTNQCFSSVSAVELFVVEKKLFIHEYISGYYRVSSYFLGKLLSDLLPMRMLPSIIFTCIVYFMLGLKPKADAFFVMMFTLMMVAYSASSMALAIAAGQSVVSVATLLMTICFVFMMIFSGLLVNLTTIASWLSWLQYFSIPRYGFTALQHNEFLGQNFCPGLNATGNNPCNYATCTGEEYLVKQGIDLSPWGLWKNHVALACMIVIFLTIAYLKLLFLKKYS
The series can be described thus: Hoechst 33342 transport experiment, human intestinal organoids obtained with polysaccharide polymers. Type of series: in vitro ADME.

In series [1] the test system is CYP3A8. Put plainly: Drug metabolism experiment with midazolam, CYP3A8 metabolic activity of cynomolgus monkey intestinal organoids. The settings on record: 5 μmol/L midazolam, 37° C., 24 hours.
For series [2], the system named is CYP3A4. Put plainly: Drug metabolism experiment with midazolam, CYP3A4 metabolic activity of human intestinal organoids obtained with polysaccharide polymers. The settings on record: 5 μmol/L midazolam.
The test system of series [3] is CYP3A4.
For series [4], the system named is CYP3A4. The series can be described thus: CYP3A4 induction ability of human intestinal organoids obtained with polysaccharide polymers (mRNA and midazolam metabolic activity). The settings on record: VD3 1 μmol/L, 72 hours.
In series [5] the test system is CYP3A8.
In series [6] the target is T2, ABCB1/MDR1 (Homo sapiens, UniProt P08183). Put plainly: Rhodamine 123 uptake experiment, function of ABCB1/MDR1 in human intestinal organoids (fluorescence observation). Type of series: in vitro ADME. The settings on record: rhodamine 123 10 μmol/L, 37° C., 1 hour, absence of verapamil.
The target of series [7] is T2, ABCB1/MDR1. Put plainly: Rhodamine 123 transport experiment, human intestinal organoids obtained with polysaccharide polymers. Type of series: in vitro ADME.

T2 sequence (P08183 whole entry): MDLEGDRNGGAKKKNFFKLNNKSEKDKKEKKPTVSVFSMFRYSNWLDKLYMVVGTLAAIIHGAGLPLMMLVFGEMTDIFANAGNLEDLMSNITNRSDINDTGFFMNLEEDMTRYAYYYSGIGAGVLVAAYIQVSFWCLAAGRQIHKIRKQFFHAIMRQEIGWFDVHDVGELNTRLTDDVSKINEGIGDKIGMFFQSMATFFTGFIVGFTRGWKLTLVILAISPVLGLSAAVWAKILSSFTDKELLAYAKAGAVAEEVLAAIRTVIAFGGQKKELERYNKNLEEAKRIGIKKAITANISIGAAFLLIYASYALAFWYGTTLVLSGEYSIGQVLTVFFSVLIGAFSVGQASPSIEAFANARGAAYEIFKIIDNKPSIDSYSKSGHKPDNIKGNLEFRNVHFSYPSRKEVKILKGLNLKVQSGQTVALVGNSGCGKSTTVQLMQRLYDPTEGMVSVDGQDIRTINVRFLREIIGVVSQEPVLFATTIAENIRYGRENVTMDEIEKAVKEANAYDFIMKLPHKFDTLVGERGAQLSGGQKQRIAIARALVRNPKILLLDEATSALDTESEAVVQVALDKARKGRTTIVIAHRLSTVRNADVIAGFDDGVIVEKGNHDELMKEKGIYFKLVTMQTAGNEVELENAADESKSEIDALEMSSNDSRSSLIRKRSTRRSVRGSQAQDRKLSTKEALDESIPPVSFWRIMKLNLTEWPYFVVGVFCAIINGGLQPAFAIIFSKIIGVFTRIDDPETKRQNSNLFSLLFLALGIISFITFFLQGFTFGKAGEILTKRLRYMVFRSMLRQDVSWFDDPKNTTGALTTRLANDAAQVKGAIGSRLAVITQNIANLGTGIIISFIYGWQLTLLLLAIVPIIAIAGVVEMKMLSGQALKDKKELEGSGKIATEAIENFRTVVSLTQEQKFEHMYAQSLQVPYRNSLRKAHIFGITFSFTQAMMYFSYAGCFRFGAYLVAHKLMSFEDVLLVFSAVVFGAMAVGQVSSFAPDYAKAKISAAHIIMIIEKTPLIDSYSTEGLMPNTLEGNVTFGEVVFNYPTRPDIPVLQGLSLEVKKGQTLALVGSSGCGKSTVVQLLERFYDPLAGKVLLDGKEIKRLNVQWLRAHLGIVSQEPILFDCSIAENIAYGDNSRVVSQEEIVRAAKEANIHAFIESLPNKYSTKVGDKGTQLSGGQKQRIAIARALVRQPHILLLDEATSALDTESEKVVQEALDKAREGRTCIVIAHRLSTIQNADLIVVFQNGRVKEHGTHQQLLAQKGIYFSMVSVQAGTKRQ

In the case of `CCOc1ccc(-c2nc3ccc(-c4nc5ccc(N6CCN(C)CC6)cc5[nH]4)cc3[nH]2)cc1` [Hoechst 33342], the “excretion of Hoechst 33342 into the intestinal organoids” value on ABCG2/BCRP is given as “observed”.

For the compound `Cc1ncc2n1-c1ccc(Cl)cc1C(c1ccccc1F)=NC2` [midazolam], the midazolam metabolic activity result in the series on CYP3A8 [1] was “observed”; in the series with CYP3A4 [2] (37° C., 24 hours) it was “observed”.

As to `CC(=O)N1CCN(c2ccc(OCC3COC(Cn4ccnc4)(c4ccc(Cl)cc4Cl)O3)cc2)CC1` (stereo not shown) [ketoconazole], the “effect of inhibitor on midazolam metabolic activity” value in the series with CYP3A4 [2] is “significantly inhibited”.

In the case of `C=C1/C(=C\C=C2/CCC[C@]3(C)[C@@H]([C@H](C)CCCC(C)(C)O)CC[C@@H]23)C[C@@H](O)C[C@@H]1O` [VD3, 1α, 25-dihydroxyvitamin D3], the “induction of mRNA expression of CYP3A4 as compared with the control group” value with CYP3A4 [3] was “approximately 4.5 times”; in the series with CYP3A4 [4] (organoids obtained with polysaccharide polymers), “significantly induced”. For the same compound, the “midazolam metabolic activity in the inducer-added group” value in the series on CYP3A4 [4] (5 μmol/L midazolam) is given as “significantly increased”. In the series with CYP3A8 [5], the “induction of mRNA expression of CYP3A8 as compared with the control group” value is recorded as “no induction”.

As for rhodamine 123, the “excretion of rhodamine 123 into the intestinal organoids” value on ABCB1/MDR1 [6] and on ABCB1/MDR1 [7] was “observed” each time.

These data come from US11859212B2, “Method for producing intestinal organoid derived from pluripotent stem cells” (PUBLIC UNIVERSITY CORPORATION NAGOYA CITY UNIVERSITY, priority 2017, dated 2024).
